The values below are quoted from earlier work in US20150307774A1, “Chelates, chelating agents, conjugates derived thereof and their use” (priority 2012, published 2015).

For the data set the following is noted: at this pH (7.4), calculated from literature data.

Turning to `O=C(O)CN(CCN(CC(=O)O)CC(=O)O)CC(=O)O` [EDTA], the conditional stability constant is 14.53 Log units.
